Data as given in patent publication US20150292030A1, “METHODS OF CHARACTERIZING AND TREATING MOLECULAR SUBSET OF MUSCLE-INVASIVE BLADDER CANCER” (BOARD OF REGENTS, THE UNIVERSITY OF TEXAS SYSTEM, priority 2012, published 2015).

Columns and labels:
[1] = test system: human bladder cancer cell lines; test: Proliferation (MTT) assay of BGJ398 on a panel of 30 human bladder cancer cell lines; format: cell-based; conditions: lines SW780, UC1, RT112, RT4 and UC14; FIG. 6
Text: FIG. 6. Proliferation (MTT) assay testing effect of BGJ398 on human bladder cancer cell lines.
To test this possibility, the inventors examined the effects of the FGFR-selective inhibitor BGJ398 on proliferation in the inventor's panel of 30 human bladder cancer cell lines using MTT assays.

[2] = test system: muscle-invasive bladder cancer; test: Pathological response to neoadjuvant chemotherapy at cystectomy by cluster, discovery cohort; format: in vivo, human; conditions: cluster 2 (p53-like); FIG. 1D
Text: Tumors and clinical data were obtained from the MD Anderson genitourinary cancers research database. Fresh frozen tissues were obtained from the SPORE Tissue Core. Of note, all patients had previously signed informed consent allowing collection of their tissue and of their clinical data in the genitourinary research database. […] Patients were classified as muscle invasive for tumor growth into the muscularis propria; otherwise, they were classified as non-muscle invasive. Total RNA from human specimens were isolated using mirVana miRNA isolation kit (Ambion, Inc).
Presurgical (neoadjuvant) cisplatin-based chemotherapy is the current standard-of-care for high-risk muscle-invasive bladder cancer. […] To examine the relationship between the 3 molecular subsets and chemotherapy sensitivity, the inventors identified 18 patients within their discovery cohort that had received neoadjuvant chemotherapy and compared the pathological response rates within each cluster. Strikingly, whereas over half of the basal/cluster 1 (3/5) and luminal/cluster 3 (4/6) tumors responded to chemotherapy, none (0/7) of the p53-like cluster 2 tumors was downstaged in this initial cohort (Table 3). […] Gene expression profiling classified 3 of the tumors as basal, 4 as luminal, and 9 as p53-like (FIG. 7). […]

Row | SMILES | drug sensitivity of proliferation (MTT) [1] | observed cisplatin resistance [2]
1 | CCN1CCN(c2ccc(Nc3cc(N(C)C(=O)Nc4c(Cl)c(OC)cc(OC)c4Cl)ncn3)cc2)CC1 [BGJ398] | most drug-sensitive | 
2 | N.N.[Cl][Pt][Cl] [cisplatin] |  | resistance
